According to paper PMC9090415, “Discovery of small molecule inhibitors of Plasmodium falciparum apicoplast DNA polymerase” (Journal of Enzyme Inhibition and Medicinal Chemistry, 2022):

Target: P. falciparum apicoplast DNA polymerase (Pf-apPOL) (Plasmodium falciparum, UniProt Q8ILY1)
Experiment: Fluorescence-based high-throughput DNA polymerase assay (molecular beacon), primary screen and dose-response;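 on % inhibition ApPOL 90': test concentration in µM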;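 on % inhibition Apol 40': compound concentration given in µM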;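 on % inhibition apPOL 180': test concentration in µM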
Type: biochemical
Conditions: for DNA Pol: 90 min, 10 µM
How it was run: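 Single-point screening used 10 µM compound with 20 nM polymerase, 20 nM hairpin substrate and 6 µM dNTPs for 90 min at 25 °C. Confirmatory titrations (2.5–80 µM) followed fluorescence at three times, and IC50 was derived from a fit including a cooperativity term n.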

[1] = "DNA Pol" of the 186 hits list (screen value)

Sequence of P. falciparum apicoplast DNA polymerase (Pf-apPOL) (Q8ILY1 entry or part of it): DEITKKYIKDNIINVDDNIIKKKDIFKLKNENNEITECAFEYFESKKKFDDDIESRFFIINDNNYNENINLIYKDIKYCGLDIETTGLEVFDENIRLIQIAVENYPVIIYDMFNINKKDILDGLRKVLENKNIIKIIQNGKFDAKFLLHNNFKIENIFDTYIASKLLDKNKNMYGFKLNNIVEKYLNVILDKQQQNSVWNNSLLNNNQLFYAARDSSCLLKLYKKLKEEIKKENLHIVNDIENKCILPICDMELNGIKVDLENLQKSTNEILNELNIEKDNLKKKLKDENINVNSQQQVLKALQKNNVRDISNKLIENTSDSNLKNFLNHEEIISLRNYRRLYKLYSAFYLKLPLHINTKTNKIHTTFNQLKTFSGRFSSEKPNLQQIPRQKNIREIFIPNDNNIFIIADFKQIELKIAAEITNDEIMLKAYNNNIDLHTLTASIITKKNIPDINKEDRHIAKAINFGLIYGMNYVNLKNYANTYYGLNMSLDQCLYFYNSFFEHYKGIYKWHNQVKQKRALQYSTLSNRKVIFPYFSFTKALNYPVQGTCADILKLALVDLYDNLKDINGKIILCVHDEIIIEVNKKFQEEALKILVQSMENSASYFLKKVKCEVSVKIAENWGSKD

CCOC(=O)C1=C2c3cc(OC)c(OC)cc3CC(C)(C)N2C(=O)C1=O [KU0193659]
DNA Pol [1]: 50
% inhibition Apo pol 10' (DRC-1, concentration 2.5): 0.5902%
% inhibition Apo pol 10' (DRC-1, concentration 5): 6.068%
% inhibition Apo pol 10' (DRC-1, concentration 10): 24.2091%
% inhibition Apo pol 10' (DRC-1, concentration 20): 48.7622%
% inhibition Apo pol 10' (DRC-1, concentration 40): 76.2717%
% inhibition Apo pol 10' (DRC-1, concentration 80): 83.8971%
% inhibition Apol 90' (DRC-1, concentration 2.5): 2.413%
% inhibition Apol 90' (DRC-1, concentration 5): 7.311%
% inhibition Apol 90' (DRC-1, concentration 10): 23.2588%
% inhibition Apol 90' (DRC-1, concentration 20): 44.3755%
% inhibition Apol 90' (DRC-1, concentration 40): 72.221%
% inhibition Apol 90' (DRC-1, concentration 80): 80.3053%
% inhibition apPOL 180' (DRC-1, concentration 2.5): 2.939%
% inhibition apPOL 180' (DRC-1, concentration 5): 8.013%
% inhibition apPOL 180' (DRC-1, concentration 10): 23.6538%
% inhibition apPOL 180' (DRC-1, concentration 20): 40.1403%
% inhibition apPOL 180' (DRC-1, concentration 40): 67.3971%
% inhibition apPOL 180' (DRC-1, concentration 80): 76.7403%
% inhibition Apo pol 5' (DRC-2, concentration 2.5): -4%
% inhibition Apo pol 5' (DRC-2, concentration 5): -4.49%
% inhibition Apo pol 5' (DRC-2, concentration 10): 16%
% inhibition Apo pol 5' (DRC-2, concentration 20): 26%
% inhibition Apo pol 5' (DRC-2, concentration 40): 41%
% inhibition Apo pol 5' (DRC-2, concentration 80): 41%
% inhibition Apol 40' (DRC-2, concentration 2.5): -2.41%
% inhibition Apol 40' (DRC-2, concentration 5): -3%
% inhibition Apol 40' (DRC-2, concentration 10): 21%
% inhibition Apol 40' (DRC-2, concentration 20): 39%
% inhibition Apol 40' (DRC-2, concentration 40): 57%
% inhibition Apol 40' (DRC-2, concentration 80): 57%
% inhibition ApPOL 90' (DRC-2, concentration 2.5): -1.64%
% inhibition ApPOL 90' (DRC-2, concentration 5): -0.605%
% inhibition ApPOL 90' (DRC-2, concentration 10): 22%
% inhibition ApPOL 90' (DRC-2, concentration 20): 43%
% inhibition ApPOL 90' (DRC-2, concentration 40): 64%
% inhibition ApPOL 90' (DRC-2, concentration 80): 62%
% inhibition apPOL 180' (DRC-2, concentration 2.5): -2%
% inhibition apPOL 180' (DRC-2, concentration 5): 1.35%
% inhibition apPOL 180' (DRC-2, concentration 10): 23%
% inhibition apPOL 180' (DRC-2, concentration 20): 46%
% inhibition apPOL 180' (DRC-2, concentration 40): 68%
% inhibition apPOL 180' (DRC-2, concentration 80): 66%
DNA Pol (primary screen value, DNA Pol): 50

Cc1ccc(C)n1-c1ccc(C(=O)NNC(=O)c2ccc3nccnc3c2)cc1 [Molecule 53, O=C(c1ccc(cc1)n1c(C)ccc1C)NNC(=O)c1ccc2c(c1)nccn2]
DNA Pol [1]: 84
% inhibition Apo pol 10' (DRC-1, concentration 2.5): 0.1394%
% inhibition Apo pol 10' (DRC-1, concentration 5): 8.124%
% inhibition Apo pol 10' (DRC-1, concentration 10): 19.7971%
% inhibition Apo pol 10' (DRC-1, concentration 20): 46.3145%
% inhibition Apo pol 10' (DRC-1, concentration 40): 80.1476%
% inhibition Apo pol 10' (DRC-1, concentration 80): 83.7947%
% inhibition Apol 90' (DRC-1, concentration 2.5): -3.841%
% inhibition Apol 90' (DRC-1, concentration 5): -1.933%
% inhibition Apol 90' (DRC-1, concentration 10): 7.019%
% inhibition Apol 90' (DRC-1, concentration 20): 31.5983%
% inhibition Apol 90' (DRC-1, concentration 40): 69.8424%
% inhibition Apol 90' (DRC-1, concentration 80): 79.5478%
% inhibition apPOL 180' (DRC-1, concentration 2.5): -5.424%
% inhibition apPOL 180' (DRC-1, concentration 5): -7.03%
% inhibition apPOL 180' (DRC-1, concentration 10): 0.2997%
% inhibition apPOL 180' (DRC-1, concentration 20): 17.1559%
% inhibition apPOL 180' (DRC-1, concentration 40): 57.2023%
% inhibition apPOL 180' (DRC-1, concentration 80): 72.0846%
% inhibition Apo pol 5' (DRC-2, concentration 2.5): 0%
% inhibition Apo pol 5' (DRC-2, concentration 5): 1.67%
% inhibition Apo pol 5' (DRC-2, concentration 10): 25%
% inhibition Apo pol 5' (DRC-2, concentration 20): 46%
% inhibition Apo pol 5' (DRC-2, concentration 40): 55%
% inhibition Apo pol 5' (DRC-2, concentration 80): 57%
% inhibition Apol 40' (DRC-2, concentration 2.5): 3.18%
% inhibition Apol 40' (DRC-2, concentration 5): 2%
% inhibition Apol 40' (DRC-2, concentration 10): 23%
% inhibition Apol 40' (DRC-2, concentration 20): 50%
% inhibition Apol 40' (DRC-2, concentration 40): 64%
% inhibition Apol 40' (DRC-2, concentration 80): 72%
% inhibition ApPOL 90' (DRC-2, concentration 2.5): 0.241%
% inhibition ApPOL 90' (DRC-2, concentration 5): 1.15%
% inhibition ApPOL 90' (DRC-2, concentration 10): 18%
% inhibition ApPOL 90' (DRC-2, concentration 20): 47%
% inhibition ApPOL 90' (DRC-2, concentration 40): 64%
% inhibition ApPOL 90' (DRC-2, concentration 80): 74%
% inhibition apPOL 180' (DRC-2, concentration 2.5): -1.53%
% inhibition apPOL 180' (DRC-2, concentration 5): -2.77%
% inhibition apPOL 180' (DRC-2, concentration 10): 10%
% inhibition apPOL 180' (DRC-2, concentration 20): 37%
% inhibition apPOL 180' (DRC-2, concentration 40): 56%
% inhibition apPOL 180' (DRC-2, concentration 80): 73%
DNA Pol (primary screen value, DNA Pol): 84
